Data reported in PubChem BioAssay (NCI).
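Abbreviation: GI50, concentration required for 50% inhibition of growth. At the TGI there is no net growth.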

Key:
Test in all cases: NCI tumour cell line growth inhibition, 384-well format
786-0 renal = tested on: 786-0 renal
A498 renal = tested on: A498 renal
A549 NSCLC = tested on: A549 NSCLC
ACHN renal = tested on: ACHN renal
BT-549 breast = tested on: BT-549 breast
CAKI-1 renal = tested on: CAKI-1 renal
CCRF-CEM leukemia = tested on: CCRF-CEM leukemia
COLO 205 colon = tested on: COLO 205 colon
DU-145 prostate = tested on: DU-145 prostate
EKVX NSCLC = tested on: EKVX NSCLC
HCC-2998 colon = tested on: HCC-2998 colon
HCT-116 colon = tested on: HCT-116 colon
HCT-15 colon = tested on: HCT-15 colon
HL-60(TB) leukemia = tested on: HL-60(TB) leukemia
HOP-62 NSCLC = tested on: HOP-62 NSCLC
HOP-92 NSCLC = tested on: HOP-92 NSCLC
HS 578T breast = tested on: HS 578T breast
HT29 colon = tested on: HT29 colon
IGROV1 ovarian = tested on: IGROV1 ovarian
K-562 leukemia = tested on: K-562 leukemia
KM12 colon = tested on: KM12 colon
LOX IMVI melanoma = tested on: LOX IMVI melanoma
M14 melanoma = tested on: M14 melanoma
MALME-3M melanoma = tested on: MALME-3M melanoma
MCF7 breast = tested on: MCF7 breast
MDA-MB-231 breast = tested on: MDA-MB-231 breast
MDA-MB-435 melanoma = tested on: MDA-MB-435 melanoma
MDA-MB-468 breast = tested on: MDA-MB-468 breast
MOLT-4 leukemia = tested on: MOLT-4 leukemia
NCI-H226 lung = tested on: NCI-H226 lung
NCI-H23 lung = tested on: NCI-H23 lung
NCI-H322M lung = tested on: NCI-H322M lung
NCI-H460 NSCLC = tested on: NCI-H460 NSCLC
NCI/ADR-RES ovarian = tested on: NCI/ADR-RES ovarian
OVCAR-3 ovarian = tested on: OVCAR-3 ovarian
OVCAR-4 ovarian = tested on: OVCAR-4 ovarian
OVCAR-5 ovarian = tested on: OVCAR-5 ovarian
OVCAR-8 ovarian = tested on: OVCAR-8 ovarian
PC-3 prostate = tested on: PC-3 prostate
RPMI-8226 leukemia = tested on: RPMI-8226 leukemia
RXF 393 renal = tested on: RXF 393 renal
SF-268 CNS = tested on: SF-268 CNS
SF-295 CNS = tested on: SF-295 CNS
SF-539 CNS = tested on: SF-539 CNS
SK-MEL-2 melanoma = tested on: SK-MEL-2 melanoma
SK-MEL-28 melanoma = tested on: SK-MEL-28 melanoma
SK-MEL-5 melanoma = tested on: SK-MEL-5 melanoma
SK-OV-3 ovarian = tested on: SK-OV-3 ovarian
SN12C renal = tested on: SN12C renal
SNB-19 CNS = tested on: SNB-19 CNS
SNB-75 CNS = tested on: SNB-75 CNS
SW-620 colon = tested on: SW-620 colon
T-47D breast = tested on: T-47D breast
TK-10 renal = tested on: TK-10 renal
U251 glioblastoma = tested on: U251 glioblastoma
UACC-257 melanoma = tested on: UACC-257 melanoma
UACC-62 melanoma = tested on: UACC-62 melanoma
UO-31 renal = tested on: UO-31 renal

CC(C)c1cnc(-c2cc(Cl)ccc2F)cc1Nc1ccncc1C(=O)NC(CO)CO
GI50 ([…]-0 renal): 9.73 µM | TGI (786-0 renal): 21.5 µM | GI50 (A498 renal): 2.33 µM | TGI (A498 renal): 16.1 µM | GI50 (A549 NSCLC): 2.22 µM | TGI (A549 NSCLC): 15 µM | GI50 (ACHN renal): 2.34 µM | TGI (ACHN renal): 15.3 µM | GI50 (BT-549 breast): 0.383 µM | TGI (BT-549 breast): 3.2 µM | GI50 (CAKI-1 renal): 10.4 µM | TGI (CAKI-1 renal): 22.1 µM | GI50 (CCRF-CEM leukemia): 5.22 µM | TGI (CCRF-CEM leukemia): 17.1 µM | GI50 (COLO 205 colon): 2.56 µM | TGI (COLO 205 colon): 14 µM | GI50 (DU-145 prostate): 11.5 µM | TGI (DU-145 prostate): 23.7 µM | GI50 (EKVX NSCLC): 2.57 µM | TGI (EKVX NSCLC): 16.8 µM | GI50 (HCC-2998 colon): 15.9 µM | TGI (HCC-2998 colon): 29.4 µM | GI50 (HCT-116 colon): 10.7 µM | TGI (HCT-116 colon): 22.6 µM | GI50 (HCT-15 colon): 12.7 µM | TGI (HCT-15 colon): 25.3 µM | GI50 (HL-60(TB) leukemia): 0.263 µM | TGI (HL-60(TB) leukemia): 1.57 µM | GI50 (HOP-62 NSCLC): 10.6 µM | TGI (HOP-62 NSCLC): 22.4 µM | GI50 (HOP-92 NSCLC): 6.81 µM | TGI (HOP-92 NSCLC): 19.8 µM | GI50 (HS 578T breast): 10.5 µM | TGI (HS 578T breast): 22.3 µM | GI50 (HT29 colon): 13.3 µM | TGI (HT29 colon): 26.1 µM | GI50 (IGROV1 ovarian): 13.2 µM | TGI (IGROV1 ovarian): 26 µM | GI50 (K-562 leukemia): 7.06 µM | TGI (K-562 leukemia): 19.5 µM | GI50 (KM12 colon): 2.76 µM | TGI (KM12 colon): 15.9 µM | GI50 (LOX IMVI melanoma): 1.1 µM | TGI (LOX IMVI melanoma): 2.82 µM | GI50 (M14 melanoma): 4.27 µM | TGI (M14 melanoma): 19 µM | GI50 (MALME-3M melanoma): 2.14 µM | TGI (MALME-3M melanoma): 11.2 µM | GI50 (MCF7 breast): 0.124 µM | TGI (MCF7 breast): 5.16 µM | GI50 (MDA-MB-231 breast): 0.964 µM | TGI (MDA-MB-231 breast): 14.5 µM | GI50 (MDA-MB-435 melanoma): 9.98 µM | TGI (MDA-MB-435 melanoma): 21.6 µM | GI50 (MDA-MB-468 breast): 4.51 µM | TGI (MDA-MB-468 breast): 15.1 µM | GI50 (MOLT-4 leukemia): 5.48 µM | TGI (MOLT-4 leukemia): 17.7 µM | GI50 (NCI-H226 lung): 1.2 µM | TGI (NCI-H226 lung): 12.2 µM | GI50 (NCI-H23 lung): 0.892 µM | TGI (NCI-H23 lung): 9.05 µM | GI50 (NCI-H322M lung): 2.01 µM | TGI (NCI-H322M lung): 15.6 µM | GI50 (NCI-H460 NSCLC): 12.3 µM | TGI (NCI-H460 NSCLC): 24.8 µM | GI50 (NCI/ADR-RES ovarian): 10.8 µM | TGI (NCI/ADR-RES ovarian): 22.9 µM | GI50 (OVCAR-3 ovarian): 12.8 µM | TGI (OVCAR-3 ovarian): 25.5 µM | GI50 (OVCAR-4 ovarian): 0.581 µM | TGI (OVCAR-4 ovarian): 2.65 µM | GI50 (OVCAR-5 ovarian): 14.1 µM | TGI (OVCAR-5 ovarian): 27.1 µM | GI50 (OVCAR-8 ovarian): 1.57 µM | TGI (OVCAR-8 ovarian): 5.09 µM | GI50 (PC-3 prostate): 2.22 µM | TGI (PC-3 prostate): 11.7 µM | GI50 (RPMI-8226 leukemia): 0.172 µM | TGI (RPMI-8226 leukemia): 2 µM | GI50 (RXF 393 renal): 1.36 µM | TGI (RXF 393 renal): 9.34 µM | GI50 (SF-268 CNS): 3.8 µM | TGI (SF-268 CNS): 17.6 µM | GI50 (SF-295 CNS): 5.02 µM | TGI (SF-295 CNS): 17.7 µM | GI50 (SF-539 CNS): 1.16 µM | TGI (SF-539 CNS): 11.6 µM | GI50 (SK-MEL-2 melanoma): 20.5 µM | TGI (SK-MEL-2 melanoma): 34.8 µM | GI50 (SK-MEL-28 melanoma): 7.17 µM | TGI (SK-MEL-28 melanoma): 20.5 µM | GI50 (SK-MEL-5 melanoma): 11.6 µM | TGI (SK-MEL-5 melanoma): 23.8 µM | GI50 (SK-OV-3 ovarian): 0.832 µM | TGI (SK-OV-3 ovarian): 14.2 µM | GI50 (SN12C renal): 11.4 µM | TGI (SN12C renal): 23.6 µM | GI50 (SNB-19 CNS): 13.1 µM | TGI (SNB-19 CNS): 25.9 µM | GI50 (SNB-75 CNS): 12.1 µM | TGI (SNB-75 CNS): 24.5 µM | GI50 (SW-620 colon): 5.89 µM | TGI (SW-620 colon): 19.5 µM | GI50 (T-47D breast): 3.81 µM | TGI (T-47D breast): 17.2 µM | GI50 (TK-10 renal): 10.3 µM | TGI (TK-10 renal): 22.1 µM | GI50 (U251 glioblastoma): 13.7 µM | TGI (U251 glioblastoma): 26.6 µM | GI50 (UACC-257 melanoma): 12.5 µM | TGI (UACC-257 melanoma): 25.1 µM | GI50 (UACC-62 melanoma): 0.852 µM | TGI (UACC-62 melanoma): 18.2 µM | GI50 (UO-31 renal): 12.7 µM | TGI (UO-31 renal): 25.4 µM
